Assay results published in patent publication US20260200946A1, “KRAS(G12V) INHIBITORS” (Ranok Therapeutics (Hangzhou) Co. Ltd., priority 2022, published 2026).
pEC50: −log10 of the molar value.

system: NCIH727 cells; test: Cancer cell line proliferation (CellTiter-Glo), NCI-H727; type: cell-based; settings: Homo sapiens, 72 h, NCIH727 lung carcinoid, heterozygous G12V
Description: Cell lines were cultured essentially according to ATCC recommendations.
SW620 and NCIH727 cells were plated in 384-well tissue culture plates at 1,000 cells/well and incubated at 37° C./5% CO2 for 72 hr in 40 μl of media. […] Each cell line was then treated with test compounds at various concentrations with a final concentration of 0.5% DMSO/well, and then incubated at 37° C./5% CO2 for 72 hr. 40 μl of CellTiter-Glo® Reagent (Promega Corporation, Madison, WI) was added to each well and processed according manufacturer's protocol. Results were analyzed and IC50 values were calculated in GraphPad 8.0 software.

| SMILES | pEC50 |
| --- | --- |
| C#Cc1c(F)ccc2cc(O)cc(-c3nc(OC)c4c(N5CC6CCC(C5)N6C(=O)C(C)=O)nc(OCC5(CN6CC7CC7C6)CC5)nc4c3F)c12 (centres unmarked) [Example 124] | 6.00 to 7.00 |
| [2H]C([2H])([2H])Oc1nc(-c2cc(O)cc3ccc(F)c(C#C)c23)c(F)c2nc(OCC3(CN4CC5CC5C4)CC3)nc(N3CC4CCC(C3)N4C(=O)C(C#N)CC(F)(F)F)c12 (centres unmarked) [Example 125] | 6.00 to 7.00 |
| C#Cc1c(F)ccc2cc(O)cc(-c3nc(OC)c4c(N5CC6CCC(C5)N6C(=O)C(C#N)CC)nc(OCC5(CN6CC7CC7C6)CC5)nc4c3F)c12 (centres unmarked) [Example 126] | 6.00 to 7.00 |
| O=CO.[2H]C([2H])([2H])Oc1nc(-c2cc(O)cc3ccc(F)c(C#C)c23)c(F)c2nc(OCC3(CN4CC5CC5C4)CC3)nc(N3CC4CCC(C3)N4C(=O)C(C#N)CC#N)c12 (centres unmarked) [Example 127] | 6.00 to 7.00 |
| C#Cc1c(F)ccc2cc(O)cc(-c3nc(OC)c4c(N5CC6CCC(C5)N6C(=O)CC[N+](=O)[O-])nc(OCC5(CN6CC7CC7C6)CC5)nc4c3F)c12 (centres unmarked) [Example 128] | 6.00 to 7.00 |
| C#Cc1c(F)ccc2cc(O)cc(-c3nc(OC)c4c(N5CC6CCC(C5)N6C(=O)N5CC(C#N)C5)nc(OCC5(CN6CC7CC7C6)CC5)nc4c3F)c12 (centres unmarked) [Example 130] | > 7.00 |
| C#Cc1c(F)ccc2cc(O)cc(-c3nc(OC)c4c(N5CC6CCC(C5)N6C(=O)C(CC#N)CC#N)nc(OCC5(CN6CC7CC7C6)CC5)nc4c3F)c12 (centres unmarked) [Example 131] | 6.00 to 7.00 |
| C#Cc1c(F)ccc2cc(O)cc(-c3nc(OC)c4c(N5CC6CCC(C5)N6C(=O)CCC=O)nc(OCC5(CN6CC7CC7C6)CC5)nc4c3F)c12 (centres unmarked) [Example 132] | 6.00 to 7.00 |
| C#Cc1c(F)ccc2cc(O)cc(-c3nc(OC)c4c(N5CC6CCC(C5)N6C(=O)NCC(F)(F)F)nc(OCC5(CN6CCC(C#N)CC6)CC5)nc4c3F)c12 [Example 133] | > 7.00 |
| C#Cc1c(F)ccc2cc(O)cc(-c3nc(OC)c4c(N5CC6CCC(C5)N6C(=O)NC(C)C#N)nc(OCC5(CN6CCC(C#N)CC6)CC5)nc4c3F)c12 (centres unmarked) [Example 134] | > 7.00 |
| C#Cc1c(F)ccc2cc(O)cc(-c3nc(OC)c4c(N5CC6CCC(C5)N6C(=O)NC(C)C#N)nc(OCC5(CN6CCC(C(F)(F)F)CC6)CC5)nc4c3F)c12 (centres unmarked) [Example 135] | > 7.00 |
| C#Cc1c(F)ccc2cc(O)cc(-c3nc(OC)c4c(N5CC6CCC(C5)N6C(=O)NCC(F)(F)F)nc(OCC5(CN6CCC(C(F)(F)F)CC6)CC5)nc4c3F)c12 [Example 136] | > 7.00 |
| C#Cc1c(F)ccc2cc(O)cc(-c3nc(OC)c4c(N5CC6CCC(C5)N6C)nc(OCC5(CN6CC7CC7C6)CC5)nc4c3F)c12 (centres unmarked) [Example 137] | < 6.00 |
| C#Cc1c(F)ccc2cc(O)cc(-c3nc(OC)c4c(N5CC6CCC(C5)N6C(=O)COC(F)(F)F)nc(OCC5(CN6CC7CC7C6)CC5)nc4c3F)c12 (centres unmarked) [Example 138] | 6.00 to 7.00 |
| C#Cc1c(F)ccc2cc(O)cc(-c3nc(OC)c4c(N5CC6CCC(C5)N6C(=O)C(C)(C#N)CC#N)nc(OCC5(CN6CC7CC7C6)CC5)nc4c3F)c12 (centres unmarked) [Example 139] | 6.00 to 7.00 |
| C#Cc1c(F)ccc2cc(O)cc(-c3nc(OC)c4c(N5CC6CCC(C5)N6C(=O)C(C)CC#N)nc(OCC5(CN6CC7CC7C6)CC5)nc4c3F)c12 (centres unmarked) [Example 141] | 6.00 to 7.00 |
| C#Cc1c(F)ccc2cc(O)cc(-c3nc(OC)c4c(N5CC6CCC(C5)N6C)nc(OCC5(CN6CCC(C(F)(F)F)CC6)CC5)nc4c3F)c12 [Example 142] | < 6.00 |
| C#Cc1c(F)ccc2cc(O)cc(-c3nc(OC)c4c(N5CC6CCC(C5)N6C(=O)N5CC6CC6C5)nc(OCC5(CN6CC7CC7C6)CC5)nc4c3F)c12 (centres unmarked) [Example 143] | 6.00 to 7.00 |
| C#Cc1c(F)ccc2cc(O)cc(-c3nc(OC)c4c(N5CC6CCC(C5)N6C(=O)NCC)nc(OCC5(CN6CC7CC7C6)CC5)nc4c3F)c12 (centres unmarked) [Example 144] | 6.00 to 7.00 |
| C#Cc1c(F)ccc2cc(O)cc(-c3nc(OC)c4c(N5CC6CCC(C5)N6C(=O)NC5CC(C#N)C5)nc(OCC5(CN6CC7CC7C6)CC5)nc4c3F)c12 (centres unmarked) [Example 145] | 6.00 to 7.00 |
| C#CCC(C#N)C(=O)N1C2CCC1CN(c1nc(OCC3(CN4CC5CC5C4)CC3)nc3c(F)c(-c4cc(O)cc5ccc(F)c(C#C)c45)nc(OC)c13)C2 (centres unmarked) [Example 146] | 6.00 to 7.00 |
| C#Cc1c(F)ccc2cc(O)cc(-c3nc(OC)c4c(N5CC6CCC(C5)N6C(=O)CC(C)(C)C#N)nc(OCC5(CN6CC7CC7C6)CC5)nc4c3F)c12 (centres unmarked) [Example 148] | > 7.00 |
| C#Cc1c(F)ccc2cc(O)cc(-c3nc(OC)c4c(N5CC6CCC(C5)N6C(=O)C5CNC(=O)C5)nc(OCC5(CN6CC7CC7C6)CC5)nc4c3F)c12 (centres unmarked) [Example 149] | < 6.00 |
| C#Cc1c(F)ccc2cc(O)cc(-c3nc(OC)c4c(N5CC6CCC(C5)N6C(=O)C5CC(F)(C(C)C)C5)nc(OCC5(CN6CC7CC7C6)CC5)nc4c3F)c12 (centres unmarked) [Example 150] | 6.00 to 7.00 |
| C#Cc1c(F)ccc2cc(O)cc(-c3nc(OC)c4c(N5CC6CCC(C5)N6C(=O)C5CN(C)C5)nc(OCC5(CN6CC7CC7C6)CC5)nc4c3F)c12 (centres unmarked) [Example 151] | < 6.00 |

| SMILES | pEC50 |
| --- | --- |
| C#Cc1c(F)ccc2cc(O)cc(-c3nc(OC)c4c(N5CC6CCC(C5)N6C(=O)c5cocn5)nc(OCC5(CN6CC7CC7C6)CC5)nc4c3F)c12 (centres unmarked) [Example 153] | 6.00 to 7.00 |
| C#Cc1c(F)ccc2cc(O)cc(-c3nc(OC)c4c(N5CC6CCC(C5)N6C(=O)C5CC(F)(F)CO5)nc(OCC5(CN6CC7CC7C6)CC5)nc4c3F)c12 (centres unmarked) [Example 154] | 6.00 to 7.00 |
| C#Cc1c(F)ccc2cc(O)cc(-c3nc(OC)c4c(N5CC6CCC(C5)N6C(=O)C5C6CCOC65)nc(OCC5(CN6CC7CC7C6)CC5)nc4c3F)c12 (centres unmarked) [Example 155] | > 7.00 |
| C#Cc1c(F)ccc2cc(O)cc(-c3nc(OC)c4c(N5CC6CCC(C5)N6C(=O)CCNC)nc(OCC5(CN6CC7CC7C6)CC5)nc4c3F)c12 (centres unmarked) [Example 157] | < 6.00 |
| C#Cc1c(F)ccc2cc(O)cc(-c3nc(OC)c4c(N5CC6CCC(C5)N6C(=O)NC5CN(C)C5)nc(OCC5(CN6CC7CC7C6)CC5)nc4c3F)c12 (centres unmarked) [Example 158] | < 6.00 |
| C#Cc1c(F)ccc2cc(O)cc(-c3nc(OC)c4c(N5CC6CCC(C5)N6C(=O)N(C)CC(F)(F)F)nc(OCC5(CN6CC7CC7C6)CC5)nc4c3F)c12 (centres unmarked) [Example 159] | 6.00 to 7.00 |
| C#Cc1c(F)ccc2cc(O)cc(-c3nc(OC)c4c(N5CC6CCC(C5)N6C(=O)OCC#N)nc(OCC5(CN6CC7CC7C6)CC5)nc4c3F)c12 (centres unmarked) [Example 161] | > 7.00 |
| C#Cc1c(F)ccc2cc(O)cc(-c3nc(OC)c4c(N5CC6CCC(C5)N6C(=O)NC(C)C(F)(F)F)nc(OCC5(CN6CC7CC7C6)CC5)nc4c3F)c12 (centres unmarked) [Example 163] | 6.00 to 7.00 |
| C#Cc1c(F)ccc2cc(O)cc(-c3nc(OC)c4c(N5CC6CCC(C5)N6C(=O)OCC)nc(OCC5(CN6CC7CC7C6)CC5)nc4c3F)c12 (centres unmarked) [Example 164] | 6.00 to 7.00 |
| C#Cc1c(F)ccc2cc(N)cc(-c3nc(OC)c4c(N5CC6CCC(C5)N6C(=S)NC(C)C#N)nc(OCC5(CN6CC7CC7C6)CC5)nc4c3F)c12 (centres unmarked) [Example 166] | < 6.00 |
| C#Cc1c(F)ccc2cc(O)cc(-c3nc(OC)c4c(N5CC6CCC(C5)N6C(=O)C5CC(F)(F)C5(F)F)nc(OCC5(CN6CC7CC7C6)CC5)nc4c3F)c12 (centres unmarked) [Example 167] | < 6.00 |
| C#Cc1c(F)ccc2cc(O)cc(-c3nc(OC)c4c(N5CC6CCC(C5)N6C(=O)CCN(C)OC)nc(OCC5(CN6CC7CC7C6)CC5)nc4c3F)c12 (centres unmarked) [Example 168] | 6.00 to 7.00 |
| C#Cc1c(F)ccc2cc(O)cc(-c3nc(OC)c4c(N5CC6CCC(C5)C6C(=O)NCC(F)(F)F)nc(OCC5(CN6CC7CC7C6)CC5)nc4c3F)c12 (centres unmarked) [Example 170] | < 6.00 |
| C#Cc1c(F)ccc2cc(N)cc(-c3nc(OC)c4c(N5CC6CCC(C5)N6C(=O)C[C@@H](O)C(F)(F)F)nc(OCC5(CN6CC7CC7C6)CC5)nc4c3F)c12 (some centres unmarked) [Example 171] | 6.00 to 7.00 |
| Cc1cc(N)nc(-c2c(Cl)cc3c(N4CC5CCC(C4)N5C(=O)CCOC(F)(F)F)nc(OCC4(CN5CC6CC6C5)CC4)nc3c2F)c1C(F)(F)F (centres unmarked) [Example 174] | < 6.00 |
| C#Cc1c(F)ccc2cc(O)cc(-c3nc(OC)c4c(N5CC6CCC(C5)N6C(=O)N5CC(OC(F)(F)F)C5)nc(OCC5(CN6CC7CC7C6)CC5)nc4c3F)c12 (centres unmarked) [Example 175] | 6.00 to 7.00 |
| C#Cc1c(F)ccc2cc(O)cc(-c3nc(OC)c4c(N5CC6CCC(C5)N6C(=O)C[C@@H](C)C#N)nc(OCC5(CN6CC7CC7C6)CC5)nc4c3F)c12 (some centres unmarked) [Example 177] | > 7.00 |
| C#Cc1c(F)ccc2cc(OC(=O)C(C)C)cc(-c3nc(OC)c4c(N5CC6CCC(C5)N6C(=O)C(C#N)CC#N)nc(OCC5(CN6CC7CC7C6)CC5)nc4c3F)c12 (centres unmarked) [Example 179] | 6.00 to 7.00 |
| C#Cc1c(F)ccc2cc(O)cc(-c3nc(OC)c4c(N5CC6CCC(C5)N6C(=O)C[C@H](O)C(F)(F)F)nc(OCC5(CN6CC7CC7C6)CC5)nc4c3F)c12 (some centres unmarked) [Example 180] | 6.00 to 7.00 |
| C#Cc1c(F)ccc2cc(O)cc(-c3nc(OC)c4c(N5CC6CCC(C5)N6C(=O)CC(C)C(F)(F)F)nc(OCC5(CN6CC7CC7C6)CC5)nc4c3F)c12 (centres unmarked) [Example 181] | 6.00 to 7.00 |
| C#Cc1c(F)ccc2cc(O)cc(-c3nc(OC)c4c(N5CC6CCC(C5)N6C(=O)NNC)nc(OCC5(CN6CC7CC7C6)CC5)nc4c3F)c12 (centres unmarked) [Example 182] | 6.00 to 7.00 |
| C#Cc1c(F)ccc2cc(O)cc(-c3nc(OC)c4c(N5CC6CCC(C5)N6C(=O)NC56CC(F)(C5)C6)nc(OCC5(CN6CC7CC7C6)CC5)nc4c3F)c12 (centres unmarked) [Example 183] | > 7.00 |
| C#Cc1c(F)ccc2cc(O)cc(-c3nc(OC)c4c(N5CC6CCC(C5)N6C(=O)NC56CC(C(F)(F)F)(C5)C6)nc(OCC5(CN6CC7CC7C6)CC5)nc4c3F)c12 (centres unmarked) [Example 184] | 6.00 to 7.00 |
| C#Cc1c(F)ccc2cc(O)cc(-c3nc(OC)c4c(N5CC6CCC(C5)N6C(=O)C56CC(F)(C5)C6)nc(OCC5(CN6CC7CC7C6)CC5)nc4c3F)c12 (centres unmarked) [Example 185] | 6.00 to 7.00 |

same assay, conditions: Homo sapiens, NCIH727 lung carcinoid, heterozygous G12V, 72 hr

| SMILES | pEC50 |
| --- | --- |
| C#Cc1c(F)ccc2cc(O)cc(-c3nc(OC)c4c(N5CC6CCC(C5)N6C(=O)OCC(F)(F)F)nc(OCC5(CN6CC7CC7C6)CC5)nc4c3F)c12 (centres unmarked) [Example 162] | 6.00 to 7.00 |
